US4647552A, “Process for obtaining ready for fertilization sexual products from sexually mature fish” (Kozponti Valto-es Hitelbank Rt. Innovacios Alap, priority 1983, dated 1987)
Where a SMILES comes first, the peptide text is derived from it. [ ]: non-standard residue; d: D form. pGlu = O=C1CC[C@@H](C(=O)O)N1

How the values were obtained:
Assay type in all cases: in vivo
[1] = system: perch [Perca fluviatilis L.]; experiment: Induced artificial propagation of perch; conditions: single dose of 20 μg if ripe for ovulation, or last of the 2 μg doses
Experimental: Mature fish are selected from a population and transported to the place of propagation. Maturity of sexual products is determined according to Example 1 but sexes are not segregated. Fish ripe for ovulation--includingmales--are treated with a single dose of 20 μg of decapeptide of formula (II). Fish not yet ripe for ovulation should be kept at the temperature of natural spawning and the above-mentioned compound should be administered in doses of 2 μg each at least 2 but at most 10 times as long as the nucleus of egg cell moves from the centre to the periphery. The number of treatments depends on the actual stage of maturity of sexual products in comparison to the stage "ripe for ovulation". The process of ripening lasts at least 100 day-grades, in extreme cases to 400 day-grades, in the water temperature-interval of 12°-16° C. Spawning takes place 24-36 hours after the administration of the last dose. Perch can be spawned easily in tanks; in such a case stripping of sexual products is not necessary.

[2] = system: sterlet (Acipenser ruthenus L.); experiment: Induced artificial propagation of sterlet; conditions: single dose of 70 μg if ripe for ovulation, or last of the 10 μg doses, injected
Experimental: From the population of a given habitat mature fish are selected and then transported to the place of propagation. Sexes are segregated and the stage of ripening of eggs from females is determined. Fish are considered to be ripe for ovulation if the nucleus is situated on the periphery of the egg cell. Sperms of males are not examined as in the population of a given habitat the sexual products of males and females are practically in the same stage of ripening. If fish are ripe for ovulation, decapeptide of formula (II) in a single dose of 70 μg each is injected into each fish, including males. If fish are not ripe for ovulation, they should be kept at the temperature of natural spawning and the above compound should be administered in doses of 10 μg each, at least 2 but at most 12 times as long as the nucleus moves from the centre to the periphery. The number of treatments depends on the actual stage of maturity of sexual products in comparison to the stage "ripe for ovulation". This process of ripening lasts at least 100 but at most 630 day-grades in the temperature interval of 12°-18° C. (Day-grade means number of days multiplied by the mean temperature of water used in the ripening period.) Ovulation takes place 24-32 hours after the administration of the last dose. Thereafter sexual products are obtained in 40-60 minutes.

[3] = system: horse mackerel (Trachurus trachurus L.); experiment: Induced artificial propagation of horse mackerel; conditions: single dose of 10 μg injected, water temperature 18°-24° C.
Experimental: From among horse mackerels caught alive from the Adriatic in November specimens having a length of at least 240 mm are transported to the place of propagation. (Fish of this size are already mature sexually.) The compound of formula (II) is injected into each fish in a single dose of 10 μg. Ovulation takes place in 24 hours at the water temperature of 18°-24° C. Sexual products are obtained in 2 hours. In case of horse mackerel the determination of stage of ripening and sex is unnecessary as ripe fish are at disposal in a practically unlimited quantity.

[4] = system: common carp (Cyprinus carpio L.); experiment: Induced artificial propagation of common carp; conditions: single dose of 70 μg if ripe for ovulation, or last of the 5 μg doses
Experimental: In any season of the year and at any temperature mature breeders are selected from the stock and transported to the place of propagation. Sexes are segregated and the stage of ripening of sexual products is determined according to Example 1. If fish are ripe for ovulation, a single dose of 70 μg of decapeptide of formula (III) is administered, including males. Fish not yet ripe for making ovulate should be kept at the temperature of natural spawning and the above-mentioned compound should be administered in doses of 5 μg each, at least 2 but at most 15 times as long as the nucleus of the egg cell moves from the centre to the periphery. The number of treatments depends on the actual stage of maturity of sexual products in comparison to the stage "ripe for ovulation". The process of ripening lasts at least 100 but most 750 day-grades in the temperature interval of 20°-24° C. Ovulation takes place 240-260 hour-grades after the administration of the last dose. Then sexual products are stripped in 40-60 minutes. cl EXAMPLE 3

[5] = system: silver carp (Hypophthalmichthys molitrix Val.); experiment: Induced artificial propagation of silver carp; conditions: single dose of 100 μg if ripe for ovulation, or last of the 10 μg doses
Experimental: Sexually mature fish are selected from the stock and transported to the place of propagation. Sexes are segregated. Stage of ripening of sexual products is determined according to Example 1 and fish ripe for ovulation--including males--are treated with a single dose of 100 μg of decapeptide of formula (III). Fish not yet ripe for ovulation should be kept at the temperature of natural spawning and the above-mentioned compound should be administered in doses of 10 μg each, at least 2 but at most 10 times as long as the nucleus of egg cell moves from the centre to the periphery. The number of treatments depends on the actual stage of maturity of sexual products in comparison to the stage "ripe for ovulation". This process of ripening lasts at least 150, in extreme cases to 850, day-grades in the water temperature interval of 20°-26° C. Ovulation takes place 240-260 hour-grades after the administration of the last dose. Thereafter sexual products are stripped.

Row | SMILES | Spawning takes place after the administration of the last dose [1] [h] | Ovulation takes place after the administration of the last dose [2] [h] | Ovulation takes place in [3] [h] | Ovulation takes place after the administration of the last dose [4] | Ovulation takes place after the administration of the last dose [5]
1 | CC(C)C[C@H](NC(=O)[C@@H](Cc1ccccc1)NC(=O)[C@H](Cc1ccc(O)cc1)NC(=O)[C@H](CO)NC(=O)[C@H](Cc1c[nH]c2ccccc12)NC(=O)[C@H](Cc1c[nH]cn1)NC(=O)[C@@H]1CCC(=O)N1)C(=O)N[C@@H](CCC(N)=O)C(=O)N1CCC[C@H]1C(=O)NCC(N)=O [formula (II), Glp-His-Trp-Ser-Tyr-D-Phe-Leu-Gln-Pro-Gly-NH2] ([pGlu]HWSY[dF]LQPG-NH2) | 24 to 36 | 24 to 32 | 24 |  | 
2 | CC(C)C[C@H](NC(=O)[C@H](Cc1c[nH]c2ccccc12)NC(=O)[C@@H](Cc1ccccc1)NC(=O)[C@H](Cc1ccc(O)cc1)NC(=O)[C@H](CO)NC(=O)[C@H](Cc1c[nH]c2ccccc12)NC(=O)[C@H](Cc1c[nH]cn1)NC(=O)[C@@H]1CCC(=O)N1)C(=O)N1CCC[C@H]1C(=O)NCC(N)=O [formula (III), Glp-His-Trp-Ser-Tyr-D-Phe-Trp-Leu-Pro-Gly-NH2] ([pGlu]HWSY[dF]WLPG-NH2) |  |  |  | 240-260 hour-grades | 240-260 hour-grades
